Experimental data from patent US20050175580A1, “Compositions and methods for enhancing cytokine activity and treating hypotension associated with the administration of cytokines” (priority 2001, published 2005).
Entries after “also recorded” stand apart in the source; their conditions may differ.

Tests used:
Meth A tumor [1] = test: NO-mediated apoptosis of Meth A tumor (not shown); type: cell-based, mouse
murine (mouse) LAK cell = test: LAK cell induction in vitro, murine splenocytes activated with IL-2, cytotoxicity against RD-995 tumor, trypan blue viability; type: cell-based
Protocol: Non-M40403 exposed cultures served as a positive control. After 72 h, LAK cells were harvested and cell viability evaluated. LAK cells cytotoxicity was tested against RD-995 tumor in triplicate samples at varying effector to target cell ratios (expressed as mean±SD) using previously published methods (Yim et al., 1994; Samlowski et al., 1998).
Cell viability was assessed by trypan blue exclusion. Viability remained at 100% of control at up to 10 μM M40403 (not shown).

NO = test: Inhibition of NO (not shown)
mice [2] = test: IL-2 dose escalation study with or without M40403 (deaths, blood pressure); type: in vivo
Protocol: Analysis was performed using Chart 3.6.1 software (AD instruments).

mice [3] = test: IL-2 induced hypotension in mice, systolic blood pressure via tail cuff; type: in vivo
Protocol: Parallel groups of untreated mice or mice receiving M40403 alone (at the highest dose tested of 3 mg/kg) served as a control. […] Analysis was performed using Chart 3.6.1 software (AD instruments).
Preliminary experiments were also performed with M40401.

Meth A tumor [4] = test: Meth A fibrosarcoma tumor model (malignant ascites), survival; type: in vivo, BALB/c mice
Excerpt: Meth A was induced in a BALB/c mouse by methylcholanthrene treatment (obtained from Lloyd Old, MSKCC). This very aggressive fibrosarcoma is one of the rare tumors resistant to LAK cell mediated cytolysis in vitro. […] See Yim et al., J. Immunol. 155: 4382-4390 (1995).
Survival of the mice was used as the major endpoint to assess therapeutic responses.

RD-995 tumor = test: Rosenberg tumor model, RD-995 pulmonary metastases; type: in vivo, mice
Protocol: RD-995 is a skin fibrosarcoma that was induced by chronic ultraviolet light exposure of a C3H/HeN mouse (Samlowski et al., 1995). This tumor grows in non-immunosuppressed mice, and is thus termed a “progressor” tumor.
Once stabilized, mice were injected with 10^6 RD-995 tumor cells intravenously. […] On day 14, mice were sacrificed by anesthetic overdose. After anterior thoracotomy, India ink solution (30 ml India ink, 4 drops ammonium hydroxide in 170 ml distilled water) was instilled into the trachea of each mouse via 18 ga. needle, until the lungs were completely expanded. Lungs were then excised and bleached in 5-10 ml Fekete's solution (100 ml 70% ethanol, 10 ml formaldehyde, 5 ml glacial acetic acid) for at least 24 h prior to enumeration of metastases using a magnifying lens.

LAK cells = test: LAK cell induction in vivo, 51Cr release of lymph node and spleen cells against RD-995 tumor; set-up: species or system mice
Protocol: Parallel groups of untreated mice or mice receiving M40403 alone (at the highest dose tested of 3 mg/kg) served as a control. […] A single cell suspension was prepared from the lymph nodes and spleen from each animal, and serial dilutions made (starting from 10^6). Cytolytic activity of lymph node and spleen cells was tested against ^51Cr-radiolabeled RD-995 tumor (NK resistant, LAK sensitive, 10^4 cells) in a standard 4h ^51Cr release assay at a varying effector to target cell ratio (in triplicate). […] Statistical comparison of specific cytotoxicity (e.g. at 100:1 effector to target ratio) and lytic units per organ will be performed using Student's t-test, using Bonferroni's correction for multiple analyses.

[5] = M40403 at highest dose, 3 mg/kg b.i.d. for 5 days
[6] = M40403 3 mg/kg i.p. b.i.d. in conjunction with IL-2 180,000 IU for 5 days

## [Cl-].[Cl-].[Mn+2].c1cc2nc(c1)CN[C@@H]1CCCC[C@H]1NCCN[C@@H]1CCCC[C@H]1NC2 [M40403]
Meth A tumor [1]
  effect on NO-mediated apoptosis of Meth A tumor: does not affect
Murine (mouse) LAK cell; M40403 0-10 μM during IL-2 activation (6000 IU/ml rhIL-2), 72 h
  effect on murine LAK cell activation by IL-2: did not adversely affect; also recorded: do not adversely affect
Murine (mouse) LAK cell; increasing concentrations of M40403 during IL-2 activation
  dose dependence of LAK cell activation: dose-dependent increase
Murine (mouse) LAK cell; up to 10 μM M40403, trypan blue exclusion
  cell viability: 100 % of control
NO
  inhibition of NO: does not inhibit
Mice [2]; M40403 3 mg/kg i.p. b.i.d. in conjunction with IL-2
  blood pressure under escalating doses of IL-2: allowed BP to be maintained
Mice [2]; M40403 3 mg/kg i.p. b.i.d. in conjunction with IL-2, all doses of IL-2 (180,000-400,000 IU)
  deaths: 0 deaths of 6 mice
Mice [3]; [5]
  effect on systolic blood pressure: no effect on systolic blood pressure
  signs of toxicity: no apparent signs of toxicity
Mice [3]; SOD mimetic i.p. b.i.d. in conjunction with IL-2 180,000 IU for 5 days
  reversal / attenuation of IL-2 induced hypotension: attenuated in a dose-dependent manner
Mice [3]; b.i.d. with IL-2 for 5 days
  dose at which maximal / full reversal of IL-2 induced hypotension was obtained: 3 mg/kg
Mice [3]; mice, n=6 per group, IL-2 180,000 IU i.p. twice daily for 5 days, M40403 alone at 3 mg/kg, tail cuff two hours after last dose of IL-2
  Mean Systolic BP: 111.21
Mice [3]; mice, n=6 per group, IL-2 180,000 IU i.p. twice daily for 5 days, M40403 alone at 3 mg/kg, two hours after last dose of IL-2
  systolic BP, mean: 111±45 mmHg
Meth A tumor [4]; IL-2 180,000 IU s.c. with M40403 3 mg/kg s.c.
  IL-2 induced anti-tumor responses, combination of IL-2 with M40403: improves IL-2 induced anti-tumor responses
Meth A tumor [4]; M40403 itself, 3 mg/kg s.c.
  effect on survival: did not affect survival
RD-995 tumor; M40403 3 mg/kg concurrently with IL-2
  effect on the anti-tumor effects of IL-2: did not affect the anti-tumor effects of IL-2
RD-995 tumor; single agent, IL-2 180,000 IU i.p. every 12 h for 5 days or M40403 3 mg/kg, day 14
  number of tumor nodules in lungs: completely eliminated
LAK cells; [6]
  IL-2 induced LAK cells activation in vivo, lymph nodes: significantly potentiated
  IL-2 induced LAK cells activation in vivo, spleen: significantly potentiated
LAK cells; M40403 by itself, 3 mg/kg
  LAK cell induction in vivo: did not increase
